From the supplement of paper PMC10307832

How the values were obtained:
Experiment in all cases: relative viability (nuclei count vs DMSO), 5 days (fraction); higher = more cells survive
BEN = system: BEN
In short: (§1)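 Lung cancer cell lines in 1536-well plates got either a single drug or a fixed anchor-drug dose together with five library-drug doses (not always all listed) in √10 steps, by pin tool, on the day after seeding. Nuclei were counted after 5 days, and relative viability is the treated-to-vehicle ratio of nuclei counts. Values are medians of duplicate plates.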

CAL-12T = system: CAL-12T
In short: as §1

EKVX = system: EKVX
In short: as §1

HCC-366 = system: HCC-366
In short: as §1

HCC-44 = system: HCC-44
In short: as §1

LOU-NH91 = system: LOU-NH91
In short: as §1

LU99A = system: LU99A
In short: as §1

NCI-H1355 = system: NCI-H1355
In short: as §1

NCI-H1395 = system: NCI-H1395
In short: as §1

NCI-H1437 = system: NCI-H1437
In short: as §1

NCI-H1563 = system: NCI-H1563
In short: as §1

NCI-H1650 = system: NCI-H1650
In short: as §1

NCI-H1651 = system: NCI-H1651
In short: as §1

NCI-H1734 = system: NCI-H1734
In short: as §1

NCI-H1755 = system: NCI-H1755
In short: as §1

NCI-H1975 = system: NCI-H1975
In short: as §1

NCI-H2023 = system: NCI-H2023
In short: as §1

NCI-H2085 = system: NCI-H2085
In short: as §1

NCI-H358 = system: NCI-H358
In short: as §1

NCI-H441 = system: NCI-H441
In short: as §1

NCI-H460 = system: NCI-H460
In short: as §1

NCI-H838 = system: NCI-H838
In short: as §1

With `O=C(O)c1ccc(-c2c[nH]c3ncc(-c4ccccc4)cc23)cc1C1CCCC1` + CS(=O)(=O)N1CCN(Cc2cc3nc(-c4cccc5[nH]ncc45)nc(N4CCOCC4)c3s2)CC1 [Pictilisib] (partner 1 µM) the relative viability (BEN; first compound 0.04 µM) was 0.546, the relative viability (BEN; first compound 0.1265 µM) was 0.609 and the relative viability (BEN; first compound 0.4 µM) was 0.584. The relative viability (BEN; first compound 1.265 µM) was 0.555, the relative viability (CAL-12T; first compound 0.04 µM) was 0.478 and the relative viability (CAL-12T; first compound 0.1265 µM) was 0.696. It also gave a relative viability (CAL-12T; first compound 0.4 µM) of 0.494, a relative viability (CAL-12T; first compound 1.265 µM) of 0.448 and a relative viability (EKVX; first compound 0.04 µM) of 0.462. The relative viability (EKVX; first compound 0.1265 µM) was 0.524, the relative viability (EKVX; first compound 0.4 µM) was 0.468 and the relative viability (EKVX; first compound 1.265 µM) was 0.374. For the same compound, the relative viability (HCC-366; first compound 0.04 µM) was 0.136, the relative viability (HCC-366; first compound 0.1265 µM) was 0.192 and the relative viability (HCC-366; first compound 0.4 µM) was 0.138. The relative viability (HCC-366; first compound 1.265 µM) was 0.153, the relative viability (HCC-44; first compound 0.04 µM) was 0.697 and the relative viability (HCC-44; first compound 0.1265 µM) was 0.676. For the same compound, the relative viability (HCC-44; first compound 0.4 µM) was 0.668, the relative viability (HCC-44; first compound 1.265 µM) was 0.56 and the relative viability (LOU-NH91; first compound 0.04 µM) was 0.513. The relative viability (LOU-NH91; first compound 0.1265 µM) was 0.517, the relative viability (LOU-NH91; first compound 0.4 µM) was 0.512 and the relative viability (LOU-NH91; first compound 1.265 µM) was 0.52. The relative viability (LU99A; first compound 0.04 µM) was 0.321, the relative viability (LU99A; first compound 0.1265 µM) was 0.315 and the relative viability (LU99A; first compound 0.4 µM) was 0.308. For the same compound, the relative viability (LU99A; first compound 1.265 µM) was 0.278, the relative viability (NCI-H1355; first compound 0.04 µM) was 0.481 and the relative viability (NCI-H1355; first compound 0.1265 µM) was 0.514. For the same compound, the relative viability (NCI-H1355; first compound 0.4 µM) was 0.4, the relative viability (NCI-H1355; first compound 1.265 µM) was 0.35 and the relative viability (NCI-H1395; first compound 0.04 µM) was 0.769. It also gave a relative viability (NCI-H1395; first compound 0.1265 µM) of 0.691, a relative viability (NCI-H1395; first compound 0.4 µM) of 0.625 and a relative viability (NCI-H1395; first compound 1.265 µM) of 0.555. For the same compound, the relative viability (NCI-H1437; first compound 0.04 µM) was 0.489, the relative viability (NCI-H1437; first compound 0.1265 µM) was 0.446 and the relative viability (NCI-H1437; first compound 0.4 µM) was 0.371. The relative viability (NCI-H1437; first compound 1.265 µM) was 0.263, the relative viability (NCI-H1563; first compound 0.04 µM) was 0.604 and the relative viability (NCI-H1563; first compound 0.1265 µM) was 0.658. For the same compound, the relative viability (NCI-H1563; first compound 0.4 µM) was 0.65, the relative viability (NCI-H1563; first compound 1.265 µM) was 0.742 and the relative viability (NCI-H1650; first compound 0.04 µM) was 0.585. For the same compound, the relative viability (NCI-H1650; first compound 0.1265 µM) was 0.585, the relative viability (NCI-H1650; first compound 0.4 µM) was 0.556 and the relative viability (NCI-H1650; first compound 1.265 µM) was 0.381. It also gave a relative viability (NCI-H1651; first compound 0.04 µM) of 0.557, a relative viability (NCI-H1651; first compound 0.1265 µM) of 0.641 and a relative viability (NCI-H1651; first compound 0.4 µM) of 0.451. The relative viability (NCI-H1651; first compound 1.265 µM) was 0.455, the relative viability (NCI-H1734; first compound 0.04 µM) was 0.429 and the relative viability (NCI-H1734; first compound 0.1265 µM) was 0.556. For the same compound, the relative viability (NCI-H1734; first compound 0.4 µM) was 0.445, the relative viability (NCI-H1734; first compound 1.265 µM) was 0.419 and the relative viability (NCI-H1755; first compound 0.04 µM) was 0.381. It also gave a relative viability (NCI-H1755; first compound 0.1265 µM) of 0.603, a relative viability (NCI-H1755; first compound 0.4 µM) of 0.45 and a relative viability (NCI-H1755; first compound 1.265 µM) of 0.442. For the same compound, the relative viability (NCI-H1975; first compound 0.04 µM) was 0.256, the relative viability (NCI-H1975; first compound 0.1265 µM) was 0.297 and the relative viability (NCI-H1975; first compound 0.4 µM) was 0.309. For the same compound, the relative viability (NCI-H1975; first compound 1.265 µM) was 0.271, the relative viability (NCI-H2023; first compound 0.04 µM) was 0.249 and the relative viability (NCI-H2023; first compound 0.1265 µM) was 0.302. For the same compound, the relative viability (NCI-H2023; first compound 0.4 µM) was 0.228, the relative viability (NCI-H2023; first compound 1.265 µM) was 0.224 and the relative viability (NCI-H2085; first compound 0.04 µM) was 0.431. For the same compound, the relative viability (NCI-H2085; first compound 0.1265 µM) was 0.427, the relative viability (NCI-H2085; first compound 0.4 µM) was 0.536 and the relative viability (NCI-H2085; first compound 1.265 µM) was 0.568. It also gave a relative viability (NCI-H358; first compound 0.04 µM) of 0.39, a relative viability (NCI-H358; first compound 0.1265 µM) of 0.364 and a relative viability (NCI-H358; first compound 0.4 µM) of 0.371. For the same compound, the relative viability (NCI-H358; first compound 1.265 µM) was 0.255, the relative viability (NCI-H441; first compound 0.04 µM) was 0.489 and the relative viability (NCI-H441; first compound 0.1265 µM) was 0.517. The relative viability (NCI-H441; first compound 0.4 µM) was 0.469, the relative viability (NCI-H441; first compound 1.265 µM) was 0.338 and the relative viability (NCI-H460; first compound 0.04 µM) was 0.409. For the same compound, the relative viability (NCI-H460; first compound 0.1265 µM) was 0.574, the relative viability (NCI-H460; first compound 0.4 µM) was 0.38 and the relative viability (NCI-H460; first compound 1.265 µM) was 0.365. It also gave a relative viability (NCI-H838; first compound 0.04 µM) of 0.423, a relative viability (NCI-H838; first compound 0.1265 µM) of 0.57 and a relative viability (NCI-H838; first compound 0.4 µM) of 0.506. It also gave a relative viability (NCI-H838; first compound 1.265 µM) of 0.447.
